What was measured:
Experiment in all cases: NCI-60 one-dose screening
Assay type in all cases: cell-based
MALME-3M = conditions: Homo sapiens, Melanoma, read-out: GI (%)
T-47D = conditions: Homo sapiens, T47D, Breast Cancer, read-out: GI (%)
SNB-75 = conditions: Homo sapiens, SNB-75, CNS Cancer, read-out: GI (%)
K-562 = conditions: Homo sapiens, K562, K-562, Leukemias, read-out: GI (%)
SW-620 = conditions: Homo sapiens, SW-620, Colon Cancer, read-out: GI (%)
HOP-62 = conditions: Homo sapiens, HOP-62, Non-Small Cell Lung Cancer, read-out: GI (%)
SN12C = conditions: Homo sapiens, Renal Cancer, read-out: GI (%)
MDA-MB-468 = conditions: Homo sapiens, MDA-MB-468, Breast Cancer, read-out: GI (%)
NCI-H226 = conditions: Homo sapiens, NCI-H226, Non-Small Cell Lung Cancer, read-out: GI (%)
BT-549 = conditions: Homo sapiens, BT-549, Breast Cancer, read-out: GI (%)
SF-295 = conditions: Homo sapiens, SF-295, CNS Cancer, read-out: GI (%)
SK-MEL-28 = conditions: Homo sapiens, SK-MEL-28, Melanoma, read-out: GI (%)
UACC-257 = conditions: Homo sapiens, UACC-257, Melanoma, read-out: GI (%)
SK-OV-3 = conditions: Homo sapiens, SK-OV-3, Ovarian Cancer, read-out: GI (%)
DU-145 = conditions: Homo sapiens, DU-145, Prostate Cancer, read-out: GI (%)
UACC-62 = conditions: Homo sapiens, UACC-62, Melanoma, read-out: GI (%)
NCI-H522 = conditions: Homo sapiens, NCI-H522, Non-Small Cell Lung Cancer, read-out: GI (%)
HCT-116 = conditions: Homo sapiens, HCT-116, Colon Cancer, read-out: GI (%)
MDA-MB-231/ATCC = conditions: Homo sapiens, Breast Cancer, read-out: GI (%)
IGROV1 = conditions: Homo sapiens, IGROV-1, IGROV1, Ovarian Cancer, read-out: GI (%)
SK-MEL-5 = conditions: Homo sapiens, SK-MEL-5, Melanoma, read-out: GI (%)

Structure (SMILES)	inhibition at 10 µM (MALME-3M)	inhibition at 10 µM (T-47D)	inhibition at 10 µM (SNB-75)	inhibition at 10 µM (K-562)	inhibition at 10 µM (SW-620)	inhibition at 10 µM (HOP-62)	inhibition at 10 µM (SN12C)	inhibition at 10 µM (MDA-MB-468)	inhibition at 10 µM (NCI-H226)	inhibition at 10 µM (BT-549)	inhibition at 10 µM (SF-295)	inhibition at 10 µM (SK-MEL-28)	inhibition at 10 µM (UACC-257)	inhibition at 10 µM (SK-OV-3)	inhibition at 10 µM (DU-145)	inhibition at 10 µM (UACC-62)	inhibition at 10 µM (NCI-H522)	inhibition at 10 µM (HCT-116)	inhibition at 10 µM (MDA-MB-231/ATCC)	inhibition at 10 µM (IGROV1)	other results
COc1cc(C=C2C(=O)Nc3ccccc32)ccc1OCc1ccccn1 (mixture of isomers) [6e]	6.1%	15.8%	-6.42%	19.6%	-0.45%	7.92%	2.56%	14.2%	6.29%	-6.45%	4.7%	-7.83%	-10.9%	-2%	1.98%	11.6%	5.36%	3.95%	18.1%	21%	inhibition at 10 µM (SK-MEL-5): 11.7%
COc1cc(/C=C2/C(=O)Nc3ccccc32)ccc1OCc1ccc(F)cc1 [6c]	0.21%	-6.65%	-5.65%	-3.95%	-5.55%	-0.35%	0.05%	-2.14%	-0.42%	-15.7%	-1.97%	-10.2%	-18.2%	-14.1%	-6.42%	7.29%	8.05%	-6.72%	-0.03%	-1.33%	inhibition at 10 µM (SK-MEL-5): -2.32%
COc1cc(/C=C2/C(=O)Nc3cc(Cl)ccc32)ccc1OCc1ccccn1 [6o]	4.92%	0.18%	-0.58%	8.79%	0.42%	3.58%	-4.12%	-3.25%	5.24%	3.31%	-1.12%	-7.43%	-22.8%	-7.09%	-7.21%	6.45%	-1.8%	2.05%	13.4%	25.2%	inhibition at 10 µM (SK-MEL-5): 1.29%
COc1cc(C=C2C(=O)Nc3ccccc32)ccc1OCc1ccccc1 (mixture of isomers) [6a]	8.77%	-13%	-0.57%	3.5%	9.55%	-3.56%	3.52%	8.69%	-0.06%	1.2%	-1.61%	-5.94%	-21.2%	-10.3%	0.43%	7.55%	9.6%	10.3%	5.3%	5.2%	inhibition at 10 µM (SK-MEL-5): -3.35%
COc1ccc(COc2ccc(/C=C3/C(=O)Nc4ccccc43)cc2OC)cc1 [6d]	0.29%	-12.8%	2.65%	-0.85%	0.87%	-0.03%	0.36%	-0.39%	-3.18%	7.88%	-3.32%	-6.58%	-15.9%	-19.1%	-8.53%	3.29%	6.6%	-8.46%	0.09%	-7.35%	inhibition at 10 µM (SK-MEL-5): -7.74%
COc1ccc(COc2ccc(/C=C3/C(=O)Nc4cc(Cl)ccc43)cc2OC)cc1 [6n]	2.77%	12.8%	-12.8%	-2.8%	3.63%	4.49%	4.32%	7.72%	6.67%	0.06%	-2.14%	-2.94%	-21.9%	-7.5%	3.17%	12.2%	11.5%	11.1%	5.7%	20.1%	inhibition at 10 µM (SK-MEL-5): 3.06%
COc1cc(C=C2C(=O)Nc3cc(Cl)ccc32)ccc1OCc1ccc(Cl)cc1 (mixture of isomers) [6l]	2.26%	14.8%	-3.14%	9.88%	2.57%	4.49%	1.62%	4.61%	4.89%	6.99%	2.01%	-1.11%	-8.7%	-0.69%	-3.93%	11.1%	4.01%	5.08%	8.37%	27.7%	inhibition at 10 µM (SK-MEL-5): 1.7%
COc1cc(/C=C2/C(=O)Nc3cc(Cl)ccc32)ccc1OCc1ccc(F)cc1 [6m]	7.28%	5.94%	-4.47%	2.33%	1.76%	4.08%	4.13%	7.02%	8.79%	4.26%	2.87%	-5.13%	-9.31%	2.75%	-4.25%	11.2%	7.08%	7.12%	7.87%	27.3%	inhibition at 10 µM (SK-MEL-5): 1.04%
COc1cc(/C=C2/C(=O)Nc3cc(Cl)ccc32)ccc1OCc1ccccc1 [6k]	4.05%	-0.39%	3.2%	3.86%	2.54%	0.16%	3.34%	7.61%	1.98%	16.8%	-1.02%	-6.39%	-10.4%	-10.9%	-4.08%	6.07%	4.41%	-2.15%	8.09%	23.4%	inhibition at 10 µM (SK-MEL-5): -1.43%
COc1cc(/C=C2/C(=O)Nc3ccccc32)ccc1OCc1ccc(Cl)cc1 [6b]	4.51%	-6.94%	-3.58%	1.45%	3.4%	-0.91%	-2.93%	-1.64%	3.35%	-9.1%	-2.92%	7.06%	-24.7%	-10.5%	1.33%	12.4%	4.25%	13.1%	1%	-2.14%	inhibition at 10 µM (SK-MEL-5): -2.87%
